This is an account of results in patent US10829756B2, “Discovery of enzymes from the alpha-keto acid decarboxylase family” (Regents of the University of California, priority 2015, dated 2020).

One may read the Km as the concentration of substrate that gives half-maximal velocity. For orientation: kcat means the number of substrate molecules converted per active site and unit of time at saturation.

For series [1], the system named is Streptomyces sp. C GEO175 variant L376T_T240S, SEQ ID NO:19. Nature of the series: Steady-state kinetics of 2-ketoacid decarboxylase (ADH/NADH coupled). It is filed as biochemical. Particulars: relative to GEO 175, same conditions. Here is the method: FIG. 6: Depicts results of kinetic characterization of GEO 175 and GEO 175 L376T_T240S. Kinetic constants were measured as described herein. The substrate 2-ketooctanoate carbon chain numbering referred to in the text is numbered in white. According to the molecular model of GEO 175, the double mutation L376T_T240S is predicted to recede the pocket by 1.4 Å and remove interactions between the binding pocket and carbon 8 of the ketoacid alkyl chain. […]
For the native KIVD and KIVD_VLV mutant, 2 ml overnight cultures of XL1B cells were transformed with pQE9 containing N-terminal his-tagged KIVD enzymes and grown in Terrific Broth (BP biomedical, Cat#3046-042) with 50 μg/mL of carbenicillin. […] Protein concentrations were determined using a Synergy H1 spectrophotometer (Biotek) by measuring absorbance at 280 nm using their calculated extinction coefficients with ExPASy ProtParam Tool.^33 All other buffers and salts were purchased from Fisher Scientific unless otherwise specified.
The kcat and KM values of selective KIVD mutants were measured for the substrates: C3, C5, isoC5, and C8. […] Activity was measured at 0.005 mM to 10 mM substrates. […]

For series [2], the system named is E. coli strain (ATCC 98082 pZS_thrO, pZAlac_ilvA_LeuA, pZE12LeuA*BCDKA6_KIVD_wt). Nature of the series: Alcohol toxicity: growth (OD600) of the alcohol production strain over 7 hours. The following applies: 7-hour incubation. It is filed as cell-based. Here is the method:
Alcohol tolerance of the in vivo alcohol production strain was evaluated by supplementing the fermentation media with specified quantities of long chain alcohols, and measuring growth over 7 hours. Both the E. coli strain (ATCC 98082 pZS_thrO, pZAlac_ilvA_LeuA, pZE12LeuA*BCDKA6_KIVD_wt) and fermentation media (1×M9 metals+1× trace metal mix+0.5% yeast extract+2% glucose+antibiotics) and conditions are the same as described above (Fermentation procedure and analysis). Cells were grown in media without IPTG-induction to a starting OD600 ˜0.02 and then supplemented with either 1-petanol, 1-hexanol, 1-heptanol, or 1-octanol at specified concentrations of 10 mg/L, 50 mg/L, 250 mg/L, 500 mg/L, or 1000 mg/L. OD600 readings were taken hourly up to 7 hours.

Series [3] relates to GEO195, 2-ketoacid decarboxylase, SEQ ID NO:16. The series can be described thus: Steady-state kinetics of 2-ketoacid decarboxylase (ADH/NADH coupled). It counts as biochemical. Particulars: pH 7.5, 21° C. The source says:
(§1) FIG. 20: Depicts results of a structural alignment of GEOs and KIVD (GEO175=SEQ ID NO:2, GEO243=SEQ ID NO:5, GEO 250=SEQ ID NO:6, GEO 242=SEQ ID NO:7, GEO 245=SEQ ID NO:8, GEO 251=SEQ ID NO:9, GEO 247=SEQ ID NO:10, GEO 244=SEQ ID NO:11, GEO 246=SEQ ID NO:12, GEO 248=SEQ ID NO:13, GEO 179=SEQ ID NO:14, GEO 240=SEQ ID NO:15, GEO 195=SEQ ID NO:16, GEO 241=SEQ ID NO:17, GEO 249=SEQ ID NO:4, KIVD_VLV=SEQ ID NO:3). Active site residues are denoted with a black box under the residue letter.
(§2) For the native KIVD and KIVD_VLV mutant, 2 ml overnight cultures of XL1B cells were transformed with pQE9 containing N-terminal his-tagged KIVD enzymes and grown in Terrific Broth (BP biomedical, Cat#3046-042) with 50 μg/mL of carbenicillin. (Fisher scientific, Cat# BP2648-5) For the GEOs, 2 ml overnight cultures of BLR cells were transformed with pet29b+ plasmid containing N-terminal his-tagged GEOs, and grown in Terrific Broth with 50 μg/mL of kanamycin. (Fisher scientific, Cat# BP906-5) These cultures were diluted 1:1000 in 500 mL of Terrific Broth with 1 mM MgSO4, 1% glucose, and 50ug/mL of corresponding antibiotics, then grown at 37° C. for 24 hours. Cultures were pelleted down at 4700 rpm for 10 mins and resuspended in auto-induction media (LB broth, 1 mM MgSO4, 0.1 mM TPP, 1×NPS, and 1×5052) for induction at 18° C. for 34 hours. […] Protein concentrations were determined using a Synergy H1 spectrophotometer (Biotek) by measuring absorbance at 280 nm using their calculated extinction coefficients with ExPASy ProtParam Tool.^33 All other buffers and salts were purchased from Fisher Scientific unless otherwise specified.
(§3) The kcat and KM values of selective KIVD mutants were measured for the substrates: C3, C5, isoC5, and C8. […] Activity was measured at 0.005 mM to 10 mM substrates. […] Absorbance readings were taken every 1-minute at OD340 at 21° C. for 60 minutes using the Synergy H1. Kinetic parameters (kcat and KM) were determined by fitting initial velocity versus substrate concentration data to the Michaelis-Menten equation.

For series [4], the target named is GEO179, 2-ketoacid decarboxylase, SEQ ID NO:14 (Klebsiella variicola, UniProt A0ACD7F8P2, H281L/S236A/T380V). The description is as above. The following applies: pH 7.5, 21° C. It is filed as biochemical.
GEO179, 2-ketoacid decarboxylase, SEQ ID NO:14, sequence (A0ACD7F8P2 entry or part of it H281L/S236A/T380V): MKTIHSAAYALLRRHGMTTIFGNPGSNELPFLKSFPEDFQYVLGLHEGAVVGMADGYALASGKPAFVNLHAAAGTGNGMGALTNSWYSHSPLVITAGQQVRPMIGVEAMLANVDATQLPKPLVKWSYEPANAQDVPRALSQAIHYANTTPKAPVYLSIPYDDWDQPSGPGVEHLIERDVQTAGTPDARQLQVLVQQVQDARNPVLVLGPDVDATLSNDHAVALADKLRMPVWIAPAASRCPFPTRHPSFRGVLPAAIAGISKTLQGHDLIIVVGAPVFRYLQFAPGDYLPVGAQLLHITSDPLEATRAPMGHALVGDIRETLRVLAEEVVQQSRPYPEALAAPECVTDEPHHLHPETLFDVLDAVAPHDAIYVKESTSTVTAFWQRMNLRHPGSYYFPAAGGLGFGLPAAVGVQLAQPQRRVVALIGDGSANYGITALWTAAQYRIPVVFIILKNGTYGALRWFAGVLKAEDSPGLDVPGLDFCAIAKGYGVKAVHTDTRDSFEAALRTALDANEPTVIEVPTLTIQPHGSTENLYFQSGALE
Excerpt: as §1, §2, §3

Where [5] appears, read: 250 mg l^−1 alcohol supplemented, OD 1.9 without toxicity.
The mark [6] stands for this setting: 500 mg l^−1 alcohol supplemented.
[7] abbreviates: 1000 mg l^−1 alcohol supplemented.

For `CC(=O)C(=O)O` [C3], the “decrease in catalytic efficiency relative to GEO 175” value in series [1] is reported as “less than 2 fold”.

Consider `CCCCCCCCO` [C8 alcohol, 1-octanol], for which the “final OD of E. coli cultures” value in series [2] (setting [5]) was roughly 1.0; in series [2] (setting [6]), “No significant growth”.

As for `CCCCCCCO` [heptanol, 1-heptanol], the “final OD of E. coli cultures” value in series [2] (setting [5]) is “approximately 1.6”; in series [2] (setting [6]), 0.1; in series [2] (setting [7]), “no significant growth”.

Regarding `CCCCCCO` [hexanol, 1-hexanol], the “final OD of E. coli cultures” value in series [2] (setting [5]) is “approximately 1.6”; in series [2] (setting [6]) it was 1.0; in series [2] (setting [7]) it was 0.2.

As to `CC(C)C(=O)C(=O)O` [iso C5, 2-ketoisovaleric acid], in series [3], the Michaelis constant (Km) turned out to be 9.1 ± 0.3 mM. Further, the kcat in series [3] amounted to 0.072 ± 0.001 s⁻¹; in series [4] it was 0.39 ± 0.01 s⁻¹. The “decrease in catalytic efficiency relative to GEO 175” value in series [1] is “less than 2 fold”.

Regarding `CCCCCO` [pentanol, 1-pentanol], in series [2] (setting [7]), the “final OD of E. coli cultures” value was determined as 1.5.
